Values after ≈ are worked out from the molar mass of the structure shown. Values joined by “and” are separate entries in the source; they are usually repeats but may differ in a detail not shown here. Equal entries are not always repeated.
Legend:
NIH/3T3 cells = test: Cytotoxicity colorimetric assay; assay type: cell-based; settings: Mus musculus, NIH3T3, 1 h, one hour incubation in serum-free media
Experimental: Cytotoxicity of the compounds are evaluated in a colorimetric assay using a transformed human liver cell line (HepG2, HB-8065) and an embryonic mouse cell line (NIH/3T3 cells, CRL-1658). This assay measures the bioreduction of a novel tetrazolium compound to a soluble formazan product by viable cells. HepG2 cells are seeded in 96 well plates at 2×10^4 cells/well in MEM medium with 10% fetal bovine serum (FBS) 24 hours prior to use. NIH/3T3 cells are seeded in 96 well plates at 2×10^4 cells/well in DMEM medium with 10% bovine calf serum (BCS) 24 hours prior to use. Cell monolayers are rinsed in serum-free media and incubated for one hour with a Compound in serum-free media. After incubation, the media is replaced with serum supplemented media and live cells are measured using the Cell Titer 96 Aqueous […] Assay kit (Promega, Madison, Wis.). EC50 values are determined using a four parameter logistic equation: Y=Bottom+(Top−Bottom)/(1+10^((Log EC50−X)*HillSlope)). […] Data is expressed as EC50 in μg/ml. Cytotoxicity is evaluated in a colorimetric assay using a transformed human liver cell line (HepG2, HB-8065) and an embryonic mouse cell line (NIH/3T3 cells, CRL-1658). This assay measures the bioreduction of a novel tetrazolium compound to a soluble formazan product by viable cells. HepG2 cells are seeded in 96 well plates at 3×10^4 cells/well in MEM medium with 10% fetal bovine serum (FBS) 24 hours prior to use. NIH/3T3 cells are seeded in 96 well plates at 2×10^4 cells/well in DMEM medium with 10% bovine calf serum (BCS) 24 hours prior to use. Cell monolayers are rinsed in serum-free media and incubated for one hour with test agent in serum-free media. After incubation, the media is replaced with serum supplemented media and live cells are measured using the Cell Titer 96 Aqueous […] Assay kit (Promega, Madison, Wis.). EC50 values are determined using a four parameter logistic equation: Y=Bottom+(Top−Bottom)/(1+10^((Log EC50−X)*HillSlope)).

human RBCs = assay type: cell-based; settings: 1 h, pH 7.4
Description: (§1) A new series of aryl compounds was designed to evaluate the effect of charge and aromatic group hydrophobicity on the biological activity while still maintaining an amphiphilic topology. Four and six cationic charges were investigated, and three different central rings were used to tune the overall hydrophobicity: benzene, naphthalene, and phenylbenzene. The hydrophobicities of the aryl compounds were quantified using reversed-phase HPLC retention times (Rt). The antimicrobial activities (expressed as minimum inhibitory concentration (MIC)) of these compounds were tested against four pathogens, including both Gram-negative and Gram-positive bacteria, and their hemolysis (evaluated in terms of HC50, the lowest concentration that causes 50% hemolysis of red blood cells (RBCs)) was tested against human RBCs.
Cytotoxicity of the compounds is also evaluated in a hemolysis assay using human erythrocytes. Pooled whole human blood is centrifuged to separate the red blood cells (RBC). The isolated RBCs are rinsed and diluted in Tris-buffered saline (TBS buffer, pH 7.4) to obtain a 0.22% RBC stock suspension. 5 μL of a Compound stock solution is added to 45 μL of RBC suspension and incubated with shaking for 1 hour at 37° C. At the conclusion of the incubation time, samples are centrifuged and 30 μL of the supernatant is added to 100 μL of water. OD414 measurements are read for hemoglobin concentration. The bee venom peptide melittin is used as a positive control. EC50 values are determined as described above.
Cytotoxicity is also evaluated in a hemolysis assay using isolated human erythrocytes. Pooled whole human blood is centrifuged to separate the red blood cells (RBC). The isolated RBCs are rinsed and diluted in Tris-buffered saline (TBS buffer, pH 7.4) to obtain a 0.22% RBC stock suspension. […] OD405 measurements are read for hemoglobin concentration. […] EC50 values are determined using a four parameter logistic equation: Y=Bottom+(Top−Bottom)/(1+10^((Log EC50−X)*HillSlope)).

E. coli (25922) = test: MIC assay (Table 1); assay type: cell-based; settings: Escherichia coli, isolate 25922
Escherichia coli [1] = test: Antimicrobial activity (MIC) of aryl compounds (Table 2); assay type: cell-based; settings: for MIC: Escherichia coli, Table 2
Description: as §1

Staphylococcus aureus [2] = test: as above; assay type: cell-based; settings: for MIC: Staphylococcus aureus, Table 2, read-out: MIC S. aureus
Description: as §1

S. aureus (27660) = test: MIC assay (Table 1); assay type: cell-based; settings: Staphylococcus aureus, isolate 27660
RAW 264.7 cells = test: Cytokine production in RAW 264.7 cells (ELISA); assay type: cell-based, murine; settings: 5.0 μg/mL preincubation 1 hour, LPS 100 ng/mL 18 hours; FIG. 1B
P. aeruginosa (10145) = test: MIC assay (Table 1); assay type: cell-based; settings: Pseudomonas aeruginosa, isolate 10145
E. faecalis (29212) = test: MIC assay (Table 1); assay type: cell-based; settings: Enterococcus faecalis, isolate 29212
Experimental: (§2) The compounds are screened for antimicrobial activity against a number of clinically relevant pathogens. Minimum Inhibitory Concentrations (MIC) of each of the compounds are determined using standard procedures for clinical ocular isolates of Ciprofloxacin Susceptible (CS) S. aureus (CSSA), Ciprofloxacin Resistant (CR) S. aureus (CRSA), CS S. epidermidis (CSSE), CR S. epidermidis (CRSE), St. pneumoniae (SP), St. viridans group (SV), Moraxella Species (MS) (including Moraxella catarrhalis), H. influenzae (HI), P. aeruginosa (PA), Serratia marcescens (SM), S. aureus fluoroquinolone-susceptible, S. aureus fluoroquinolone-resistant, S. epidermidis (Coagulase-negative Staphylococcus) fluoroquinolone-susceptible, S. epidermidis (Coagulase-negative Staphylococcus) fluoroquinolone-resistant, and Serratia marcescens.
(§3) On the day of testing, a 640 μg/m (1280 μg/m for Serratia marcescens and Pseudomonas aeruginosa) concentration is prepared from a 1% stock solution in 0.01% acetic acid, 0.2% BSA in polypropylene tubes.
(§4) Ten μl of diluted 10× test agents is added to each well of one row of the 96 well polypropylene plates from column 2 to column 12 (column 1 is a control for bacteria alone, with no peptide). […] The same peptide is in each of the 8 rows. One plate contains dilutions of one test agent and 8 bacterial isolates.
(§5) Ninety μl of the bacterial suspensions is dispensed in each well from column 1 to column 12. Each bacterial isolate is placed in one row of a 96 well polypropylene plate containing the test agents. The plates are placed on shaker at 15 minutes at room temperature, and then incubated at 37° C. overnight. MICs are determined visually as the lowest concentration of drug that inhibits visible bacterial growth.
(§6) Data is expressed as MIC50 in μg/ml. The bacterial isolates were as follows: E. coli (25922); S. aureus (27660); E. faecalis (29212); P. aeruginosa (10145); and K. pneumoniae (13883).

K. pneumoniae (13883) = test: MIC assay (Table 1); assay type: cell-based; settings: Klebsiella pneumoniae, isolate 13883, read-out: MIC50 K. Pnuemnoiae
Experimental: as §2, §3, §4, §5, §6

Staphylococcus aureus [3] = settings: Data from Thaker, et al., J. Med. Chem., 2011, 54, 2241; cited from earlier work
Escherichia coli [4] = settings: Data from Thaker, et al., J. Med. Chem., 2011, 54, 2241; cited from earlier work

| Compound | EC50 (NIH/3T3 cells) [µg/mL] | HC50 (human RBCs) [µg/mL] | MIC50 (E. coli (25922)) [µg/mL] | MIC (Escherichia coli [1]) [µg/mL] | Selectivity (HC50/MIC) E. coli (Escherichia coli [1]) | Selectivity (HC50/MIC) S. aureus (Staphylococcus aureus [2]) | MIC (Staphylococcus aureus [2]) [µg/mL] | MIC50 (S. aureus (27660)) [µg/mL] | LPS-induced TNF production (RAW 264.7 cells) | MIC50 (P. aeruginosa (10145)) [µg/mL] | MIC50 (E. faecalis (29212)) [µg/mL] | MIC50 (K. pneumoniae (13883)) [µg/mL] | MIC S. aureus (Staphylococcus aureus [3]) | MIC E. coli (Escherichia coli [4]) |
| --- | --- | --- | --- | --- | --- | --- | --- | --- | --- | --- | --- | --- | --- | --- |
| NCCCOc1cc(-c2cc(-c3ccccc3)cc(-c3cc(OCCCN)c(OCCCN)c(OCCCN)c3)c2)cc(OCCCN)c1OCCCN [Compound 115] | 110 (≈ 147 µM) | >1000 | 6.25 (≈ 8.39 µM) | 6.25 (≈ 8.39 µM) | >160 | >160 | 6.25 (≈ 8.39 µM) | 12.5 (≈ 16.8 µM) | did not cause any additional increase in TNF production | 25 (≈ 33.6 µM) | > 50 | 12.5 (≈ 16.8 µM) | – | – |
| NCCCOc1cc(OCCCN)cc(-c2ccc3ccc(-c4cc(OCCCN)cc(OCCCN)c4)cc3c2)c1 [Compound 119] | – | 195 | 25 (≈ 43.6 µM) | 25 (≈ 43.6 µM) | 7.8 | 15.6 | 12.5 (≈ 21.8 µM) | 12.5 (≈ 21.8 µM) | did not cause any additional increase in TNF production | 25 (≈ 43.6 µM) | 6.25 (≈ 10.9 µM) | 50 (≈ 87.3 µM) | – | – |
| MSI-78 | – | – | – | – | – | – | – | – | – | – | – | – | 16 µg/mL and 8 to 16 µg/mL | 16 µg/mL and 16 to 32 µg/mL |

Source: patent US9469616B2, “Cyclic compounds and methods of making and using the same” (Cellceutix Corporation, priority 2011, dated 2016)
